Legend:
Experiment in all cases: Post-emergence efficacy (glasshouse)
Assay type in all cases: in vivo
Settings in all cases: evaluated after 13 days
Lolium perenne (LOLPE) = tested on: Lolium perenne (LOLPE)
Protocol: (§1) Seeds of a variety of test species (such as, for example, Solanum nigrum (SOLNI), Amaranthus retoflexus (AMARE), Setaria faberi (SETFA), Echinochloa crusgalli (ECHCG), Ipomoea hederacea (IPOHE) and Lolium perenne (LOLPE)) are sown in standard soil in pots. After 8 days cultivation (post-emergence) under controlled conditions in a glasshouse (at 24/16° C., day/night; 14 hours light; 65% humidity), the plants are sprayed with an aqueous spray solution derived from the formulation of the technical active ingredient in acetone/water (50:50) solution containing 0.5% Tween 20 (polyoxyethylene sorbitan monolaurate, CAS RN 9005-64-5). Compounds are applied at 1000 and 62.5 g/ha. The test plants are then grown under controlled conditions in a glasshouse (at 24/16° C., day/night; 14 hours light; 65% humidity) and watered twice daily. After 13 days, the test is evaluated for the percentage damage caused to the plant. The biological activities are assessed on a five point scale (5=80-100%; 4=60-79%; 3=40-59%; 2=20-39%; 1=0-19%).

[1] = tested on: Ipomoea hederacea (IPOHE)
Protocol: as §1

[2] = tested on: Echinochloa crusgalli (ECHCG)
Protocol: as §1

[3] = tested on: Amaranthus retoflexus (AMARE)
Protocol: as §1

Setaria faberi (SETFA) = tested on: Setaria faberi (SETFA)
Protocol: as §1

Solanum nigrum (SOLNI) = tested on: Solanum nigrum (SOLNI)
Protocol: as §1

Row | Structure (SMILES) | percentage damage caused to the plant, LOLPE (five point scale) (Lolium perenne (LOLPE); 62.5 g/ha) | percentage damage caused to the plant, LOLPE (five point scale) (Lolium perenne (LOLPE); 1000 g/ha) | percentage damage caused to the plant, IPOHE (five point scale) ([1]; 62.5 g/ha) | percentage damage caused to the plant, IPOHE (five point scale) ([1]; 1000 g/ha) | percentage damage caused to the plant, ECHCG (five point scale) ([2]; 62.5 g/ha) | percentage damage caused to the plant, ECHCG (five point scale) ([2]; 1000 g/ha) | percentage damage caused to the plant, AMARE (five point scale) ([3]; 62.5 g/ha) | percentage damage caused to the plant, AMARE (five point scale) ([3]; 1000 g/ha) | percentage damage caused to the plant, SETFA (five point scale) (Setaria faberi (SETFA); 62.5 g/ha) | percentage damage caused to the plant, SETFA (five point scale) (Setaria faberi (SETFA); 1000 g/ha) | percentage damage caused to the plant, SOLNI (five point scale) (Solanum nigrum (SOLNI); 62.5 g/ha) | percentage damage caused to the plant, SOLNI (five point scale) (Solanum nigrum (SOLNI); 1000 g/ha)
1 | C#CCn1c(=O)c(-c2c(Cl)ccc(Cl)c2OCc2ccccc2)c(O)c2scnc21 [Compound 1.001, 6-(2-benzyloxy-3,6-dichloro-phenyl)-7-hydroxy-4-prop-2-ynyl-thiazolo[4,5-b]pyridin-5-one] | 5 (5=80-100%) | 5 (5=80-100%) | 5 (5=80-100%) | 5 (5=80-100%) | 5 (5=80-100%) | 5 (5=80-100%) | 5 (5=80-100%) | 5 (5=80-100%) | 5 (5=80-100%) | 5 (5=80-100%) | 5 (5=80-100%) | 5 (5=80-100%)
2 | C#CCn1c(=O)c(-c2c(F)ccc(Cl)c2OCc2ccccc2)c(O)c2scnc21 [Compound 1.007] | 5 (5=80-100%) | 5 (5=80-100%) | 5 (5=80-100%) | 5 (5=80-100%) | 5 (5=80-100%) | 5 (5=80-100%) | 5 (5=80-100%) | 5 (5=80-100%) | 5 (5=80-100%) | 5 (5=80-100%) | 5 (5=80-100%) | 5 (5=80-100%)
3 | C#CCn1c(=O)c(-c2c(C(F)(F)F)ccc(Cl)c2OCc2ccccc2)c(O)c2scnc21 [Compound 1.009] | 5 (5=80-100%) | 5 (5=80-100%) | 5 (5=80-100%) | 5 (5=80-100%) | 5 (5=80-100%) | 5 (5=80-100%) | 5 (5=80-100%) | 5 (5=80-100%) | 5 (5=80-100%) | 5 (5=80-100%) | 5 (5=80-100%) | 5 (5=80-100%)
4 | Cn1c(=O)c(-c2c(Cl)ccc(Cl)c2OCc2ccccc2)c(O)c2scnc21 [Compound 1.011] | 2 (2=20-39%) | 5 (5=80-100%) | 5 (5=80-100%) | 5 (5=80-100%) | 3 (3=40-59%) | 5 (5=80-100%) | 4 (4=60-79%) | 5 (5=80-100%) | 2 (2=20-39%) | 5 (5=80-100%) | 5 (5=80-100%) | 5 (5=80-100%)
5 | Cn1c(=O)c(-c2c(F)ccc(Cl)c2OCc2ccccc2)c(O)c2scnc21 [Compound 1.017] | 4 (4=60-79%) | 5 (5=80-100%) | 5 (5=80-100%) | 5 (5=80-100%) | 2 (2=20-39%) | 5 (5=80-100%) | 4 (4=60-79%) | 5 (5=80-100%) | 1 (1=0-19%) | 5 (5=80-100%) | 5 (5=80-100%) | 5 (5=80-100%)
6 | Cn1c(=O)c(-c2c(C(F)(F)F)ccc(Cl)c2OCc2ccccc2)c(O)c2scnc21 [Compound 1.019] | 3 (3=40-59%) | 5 (5=80-100%) | 5 (5=80-100%) | 5 (5=80-100%) | 3 (3=40-59%) | 5 (5=80-100%) | 4 (4=60-79%) | 5 (5=80-100%) | 3 (3=40-59%) | 5 (5=80-100%) | 5 (5=80-100%) | 5 (5=80-100%)
7 | O=c1c(-c2c(Cl)ccc(Cl)c2OCc2ccccc2)c(O)c2scnc2n1CC(F)F [Compound 1.021] | 4 (4=60-79%) | 5 (5=80-100%) | 5 (5=80-100%) | 5 (5=80-100%) | 4 (4=60-79%) | 5 (5=80-100%) | 5 (5=80-100%) | 5 (5=80-100%) | 4 (4=60-79%) | 5 (5=80-100%) | 5 (5=80-100%) | 5 (5=80-100%)
8 | O=c1c(-c2c(F)ccc(Cl)c2OCc2ccccc2)c(O)c2scnc2n1CC(F)F [Compound 1.027] | 4 (4=60-79%) | 5 (5=80-100%) | 5 (5=80-100%) | 5 (5=80-100%) | 3 (3=40-59%) | 5 (5=80-100%) | 5 (5=80-100%) | 5 (5=80-100%) | 3 (3=40-59%) | 5 (5=80-100%) | 5 (5=80-100%) | 5 (5=80-100%)
9 | O=c1c(-c2c(C(F)(F)F)ccc(Cl)c2OCc2ccccc2)c(O)c2scnc2n1CC(F)F [Compound 1.029] | 2 (2=20-39%) | 5 (5=80-100%) | 4 (4=60-79%) | 5 (5=80-100%) | 3 (3=40-59%) | 5 (5=80-100%) | 4 (4=60-79%) | 5 (5=80-100%) | 2 (2=20-39%) | 5 (5=80-100%) | 5 (5=80-100%) | 5 (5=80-100%)

From patent publication US20170347654A1, “Herbicidal Compounds” (SYNGENTA PARTICIPATIONS AG, priority 2014, published 2017)
